Reference: patent publication US12606552B2, “Bifunctional compound, preparation method therefor, and use thereof” (SUZHOU KINTOR PHARMACEUTICALS, INC., priority 2020, dated 2026)

How the values were obtained:
[1] = test system: flank sebaceous glands of golden hamster; test: In vivo efficacy on acne in female golden hamsters (growth of sebaceous plaques induced by testosterone propionate); settings: for The inhibition rate of the growth of sebaceous plaques (%): 400 μg (1.6%) + testosterone propionate 12 μg, skin smear once a day, 21 days
Source text: Activity Assay Example 7: In Vivo Efficacy of Compounds on Acne in Female Golden Hamsters
1. Test object: The flank sebaceous glands of golden hamster are androgen-dependent organs, and testosterone propionate (male hormone) promotes the enlargement of sebaceous glands. This experiment is mainly to study the inhibitory effect of CB-03-01 (positive drug), Flutamide (positive drug) and the compound on sebaceous gland enlargement in female golden hamster acne model (androgen dependence), to further observe the in vivo drug efficacy of the compound, to provide the basis for clinical trials of androgen-induced acne symptoms.
Androgen (Testosterone Propionate-TP); CB-03-01 (Clascoterone, CAS No. 19608-29-8); □ Flutamide (Flutamide, CAS No. 13311-84-7); compound A46 of the present invention.
2.2 Experimental Animals, See Table 4 for Details
2.3 Administration Vehicle: Acetone. 3. Experimental Design
In this experiment, from 72 female golden hamsters, according to the size and body weight of sebaceous glands, golden hamsters were evenly distributed to each group, 6 mice per group, a total of 7 groups, and they were administered continuously for 21 days.
According to the protocol in the table, […] of drug was administered each time, it was evenly smeared on the sebaceous glands, and administered once a day.
Animal grouping and status observation: Before grouping, the body weight was weighed, and the sebaceous glands on both sides were shaved for the observation of the size of sebaceous glands. Animals were observed twice a day in the morning and afternoon during the administration period. On the 21st day after administration, the size of sebaceous glands and the body weight of animals were observed and recorded.
The size of the sebaceous glands is expressed by the area, and the vernier caliper recorded its long side (a) and short side (b), and the area of the sebaceous glands (S) is obtained from the formula for calculating the area of a rectangle. In model group and administration group, ΔS=S−S(vehicle). Growth inhibition rate (%)=(ΔS(acetone testosterone group)−ΔS (administration group))/ΔS(acetone testosterone group)*100%.

[2] = test system: LNCaP (human prostate cancer); test: Hormone-dependent prostate cancer long-term efficacy test (LNCaP xenograft, tumor growth inhibition); type: in vivo, SCID nude mice
Method: Activity Assay Example 5: Hormone-Dependent Prostate Cancer Long-Term Efficacy Test
1. Tumor Model Establishment
1.5*10^7 LNCaP (human prostate cancer) was purchased from the Chinese Academy of Sciences Cell Bank and cultured in RPMI-1640 medium containing 10% fetal bovine serum. The cells were grown to 80-90% confluence and passaged in about 4-5 days, and the cells were grown to a sufficient amount and then inoculated into nude mice.
18-20 g SCID nude mice aged 6-7 weeks old were purchased from Beijing Vital River Co., Ltd. Mice were kept in SPF animal room, in which the temperature was 20-25° C., and the humidity was 40%-70%, and light/dark was 12 hours a day respectively. Animals were kept in separate cages, 5 per cage, with free access to food and water, in which the feed was sterilized by irradiation, and the water was autoclaved. The mice were grouped for experiment when raised to 10˜11 weeks old. LNCaP tumor cells were directly inoculated into the right back of nude mice.
3. Grouping and Administration Schedule Design
When the average tumor volume reached 200-300 mm^3, the tumors with good shape were selected for random number grouping according to the tumor volume, and the selected animals were marked and divided into 5 groups, 5 per group. Administration vehicle: 5% EtOH, 5% solutolHS15 in PBS. The corresponding dose of compound was administered by gavage.
Data are presented as mean±standard deviation (Mean±SD). One-way multi-level analysis of variance was used for statistics, and the comparison between each drug group and the model group was performed by Stundent's t-test or rank sum test, and the p value was calculated. p<0.05 means there is a significant difference between the two groups.

AR = target: T1, AR (Homo sapiens, UniProt P10275, T878A); test: Effects of compounds on AR expression in LNCaP cells (ELISA, DC50); type: cell-based; design: Measurement of the Effects of Drugs on the Expression of AR in Cells by ELISA Method; endogenous in cells; host or cells: LNCaP; settings: 24 hours of drug treatment, AR by ELISA
T1 sequence (P10275 1-920 T878A): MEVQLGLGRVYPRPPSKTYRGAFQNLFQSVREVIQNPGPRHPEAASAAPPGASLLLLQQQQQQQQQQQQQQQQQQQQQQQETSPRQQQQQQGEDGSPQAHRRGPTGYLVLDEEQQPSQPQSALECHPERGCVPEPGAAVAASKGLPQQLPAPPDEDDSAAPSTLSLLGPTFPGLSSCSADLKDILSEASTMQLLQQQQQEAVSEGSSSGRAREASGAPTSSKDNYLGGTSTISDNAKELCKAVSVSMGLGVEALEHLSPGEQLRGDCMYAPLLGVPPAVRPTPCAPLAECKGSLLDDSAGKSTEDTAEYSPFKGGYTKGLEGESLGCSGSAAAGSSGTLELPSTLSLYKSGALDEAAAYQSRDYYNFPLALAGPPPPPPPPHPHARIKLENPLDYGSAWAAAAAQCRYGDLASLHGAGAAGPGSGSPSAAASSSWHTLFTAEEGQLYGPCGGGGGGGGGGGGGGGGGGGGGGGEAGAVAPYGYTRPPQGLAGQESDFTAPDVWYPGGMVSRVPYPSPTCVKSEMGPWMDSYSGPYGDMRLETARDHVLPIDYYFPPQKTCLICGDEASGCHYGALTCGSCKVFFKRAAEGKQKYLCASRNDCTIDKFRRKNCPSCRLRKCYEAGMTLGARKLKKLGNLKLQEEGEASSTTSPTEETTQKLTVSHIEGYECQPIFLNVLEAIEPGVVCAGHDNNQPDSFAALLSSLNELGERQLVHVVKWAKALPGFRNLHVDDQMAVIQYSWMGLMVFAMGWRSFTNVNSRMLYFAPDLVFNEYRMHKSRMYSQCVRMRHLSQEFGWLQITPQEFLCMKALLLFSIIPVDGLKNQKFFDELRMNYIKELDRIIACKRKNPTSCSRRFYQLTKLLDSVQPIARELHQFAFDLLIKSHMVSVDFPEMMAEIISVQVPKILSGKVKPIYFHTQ
Summary of the method: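 LNCaP cells at about 15,000/well were treated for 24 h with compound at 0.0001–2 μmol/L final. AR in cell lysates was measured by ELISA (OD450). Inhibition was relative to DMSO control after blank subtraction, and DC50 was calculated from it.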

[3] = test system: androgenetic alopecia model in C57BL/6J mice; test: Hair regeneration effects on androgenic alopecia C57 mouse model (DHT-induced); type: in vivo, C57BL/6N mice; settings: DHT 30 mpk subcutaneous alone (model), AVER n = 6, score 0-5
Source text: Activity Assay Example 8: Hair Regeneration Effects of Compounds on Androgenic Alopecia C57 Mouse Model
The purpose of this study was to compare the effect of the compounds prepared by the present invention as AR protein degraders on hair regrowth in an androgenetic alopecia model in C57BL/6J mice by transdermal application route of administration, and to provide data to support subsequent clinical trials.
2. Experimental Principle
Name of test compound I: dihydrotestosterone DHT; name of test compound II: compound A46 of the present invention; name of test compound III: minoxidil.
4. Experimental animals: strain: C57BL/6N mice; age: 6-7 weeks; gender: male; number of animals: 70 (10 for later use); rearing environment: specific pathogen-free (SPF).
70 mice were deeply anesthetized, and the hair on the back of the mice was removed with an animal shaver, then the depilatory cream (Veet https://item.jd.com/6291245.html) was smeared evenly on the surface of the mice skin, and left 7-10 minutes. Then the hair was gently scraped off with a hair removal scraper against the direction of the hair, and finally the residual hair removal cream on the skin surface was fully washed with water to avoid burning the mice skin.
This experiment was divided into 6 groups, and the DHT administration started on the day of hair removal, A46 is administered on day 2 after hair removal and is counted as day 1 (the day of hair removal is counted as day 0).
5.3 Test Compound Preparation Method
5.4 Observation and Measurement Indicators • 1) Body weight/g: From the first day of administration, body weight was weighed and recorded twice a week. • 2) Hair regeneration (anagen) score (0 points: no darkening of skin color in all areas; 1 point: darkening of gray skin color areas; 2 points: visible short hair; 3 points: thin hair; 4 points: thick hair; 5 points: full hair growth).
All mice were photographed on day 1 after hair removal, and then photographed and scored daily from day 4 until the end of the experiment. • 3) At the end of the experiment, skin and blood collection operations were performed as needed. 5.5 Criteria for Drug Withdrawal and Experiment Termination
Data are presented as average±standard error (AVE±SEM). One-way multi-level analysis of variance was used for statistics. The comparison between each drug group and the model group was performed by Stundent's t-test or rank sum test, and the p value was calculated. p<0.05 means there is a significant difference between the two groups, p<0.01 means there is a extremely significant difference between the two groups.

## CCC(=O)O[C@]1(C(=O)CO)CC[C@H]2[C@@H]3CCC4=CC(=O)CC[C@]4(C)[C@H]3CC[C@@]21C [CB-03-01, Clascoterone, reference compound]
[1]
  The inhibition rate of the growth of sebaceous plaques (%): 69.53%

## Cc1ncsc1-c1ccc(CNC(=O)[C@@H]2C[C@@H](O)CN2C(=O)[C@@H](NC(=O)COCCCCOc2ccc(-c3ncc(N4C(=S)N(c5ccc(C#N)c(C(F)(F)F)c5F)C(=O)C4(C)C)cc3F)c(C(F)(F)F)c2)C(C)(C)C)cc1 [Compound A88]
[2]; 10 mpk by gavage, 3 days
  Tumor growth inhibition rate: 19.81%
[2]; 10 mpk by gavage, 7 days
  Tumor growth inhibition rate: 38.44%
[2]; 10 mpk by gavage, 10 days
  Tumor growth inhibition rate: 31.33%
[2]; 10 mpk by gavage, 14 days
  Tumor growth inhibition rate: 13.15%
[2]; 25 mpk by gavage, 3 days
  Tumor growth inhibition rate: 14.98%
[2]; 25 mpk by gavage, 7 days
  Tumor growth inhibition rate: 36.36%
[2]; 25 mpk by gavage, 10 days
  Tumor growth inhibition rate: 37.51%
[2]; 25 mpk by gavage, 14 days
  Tumor growth inhibition rate: 24.68%
[2]; 50 mpk by gavage, 3 days
  Tumor growth inhibition rate: 22.30%
[2]; 50 mpk by gavage, 7 days
  Tumor growth inhibition rate: 51.85%
[2]; 50 mpk by gavage, 10 days
  Tumor growth inhibition rate: 42.62%
[2]; 50 mpk by gavage, 14 days
  Tumor growth inhibition rate: 24.47%
AR
  DC50: 55 nM

## CCC(=O)O[C@H]1CC[C@H]2[C@@H]3CCC4=CC(=O)CC[C@]4(C)[C@H]3CC[C@]12C [testosterone propionate, reference compound]
[1]; model group, 12 μg TP skin smear, after 21 days
  area of sebaceous plaques: 40-50 mm^2

## CC(C)C(=O)Nc1ccc([N+](=O)[O-])c(C(F)(F)F)c1 [Flutamide, reference compound]
[1]
  The inhibition rate of the growth of sebaceous plaques (%): 40.74%

## C[C@]12CCC(=O)C[C@@H]1CC[C@@H]1[C@@H]2CC[C@]2(C)[C@@H](O)CC[C@@H]12 [DHT, dihydrotestosterone, reference compound]
[3]; 0 day
  Hair regeneration score: 0.00
[3]; 3 days
  Hair regeneration score: 0.00
[3]; 5 days
  Hair regeneration score: 0.00
[3]; 7 days
  Hair regeneration score: 0.00
[3]; 10 days
  Hair regeneration score: 0.00
[3]; 12 days
  Hair regeneration score: 0.00
[3]; 14 days
  Hair regeneration score: 0.17
[3]; 17 days
  Hair regeneration score: 0.5
